# Source: US4562207A, “Prostaglandin analogue” (Ono Pharmaceutical Co., Ltd., priority 1983, dated 1985)
# Where two headings read alike, the source gives them in different places.
# Columns and labels:
# [1] = tested on: platelet aggregation induced by adenosine-diphosphoric acid (ADP); experiment: inhibiting activity on platelet aggregation induced by ADP on human blood; assay type: cell-based; conditions: for IC50: read-out: IC50 (concentration which produces 50%-inhibition of platelet aggregation); for Relative activity against PGE1: relative to PGE1 (control) = 1.00, ADP-induced
# Text: The platelet aggregation was induced by adenosine-diphosphoric acid (ADP) on human blood. The IC50 values given in the Table are the concentrations which produce 50%-inhibition of platelet aggregation.
# INHIBITING ACTIVITIES ON PLATELET AGGREGATION INDUCED BY ADP
# [2] = tested on: carbon tetrachloride-induced liver damage; experiment: carbon tetrachloride-induced liver damage in rats; assay type: in vivo; conditions: oral, in comparison with controls
# Protocol: The experiments were carried out by the methods described in Example 1 of the specification of published W. German Patent Application No. 3310556.1 and Japanese Patent Kokai No. 58-164512, except that carbon tetrachloride was used as a 10% solution in olive oil.
# [3] = acute toxicity in mice by oral administration; conditions: mouse, in vivo
# Protocol: For example, in a test of acute toxicity in mice by oral administration, the value of LD50 of 6-keto-16S,18S-ethano-20-ethyl-PGE1 for the compound of the present invention is very large; that is the value is more than […] animal body weight.
# [4] = ADP-induced platelet aggregation, human blood
SMILES,"IC50 ([1]; Homo sapiens, Platelet)","activity as compared with the comparison compound (times as strong) ([1]; compared with compound of Example 2(d) of U.S. Pat. No. 4,278,688, platelet aggregation)",Relative activity against PGE1 ([1]; human blood),inhibition of plasma GOT (glutamic oxalacetic transaminase) ([2]; 20 μg/kg),inhibition of plasma GPT (glutamic pyruvic transaminase) ([2]; 20 μg/kg),inhibition of plasma GOT (glutamic oxalacetic transaminase) ([2]; 50 μg/kg),inhibition of plasma GPT (glutamic pyruvic transaminase) ([2]; 50 μg/kg),LD50 [3],"IC50 [1, 4]"
"CCCC[C@H]1CC[C@H]([C@H](O)/C=C/[C@H]2[C@H](O)CC(=O)[C@@H]2CC(=O)CCCCC(=O)O)C1 [6-keto-16S,18S-ethano-20-ethyl-PGE1, 6,9-dioxo-11α,15α-dihydroxy-16S,18S-ethano-20-ethylprost-13E-enoic acid]",0.08 ng/mL,about 45 times,431,47%,42%,64%,66%,> 3 mg/kg,
"CCCCC[C@H](O)/C=C/[C@H]1[C@H](O)CC(=O)[C@@H]1CCCCCCC(=O)O [PGE1, reference compound]",,,,,,,,,34.5 ng/mL
CCCCC1CCC([C@H](O)/C=C/[C@H]2[C@H](O)CC(=O)[C@@H]2CC(=O)CCCCC(=O)OC)C1 (some centres unmarked) [reference compound],,,9.58,,,,,,3.6 ng/mL
